The source of these data is patent publication US11026945B2, “Protein kinase RNA-like endoplasmic reticulum kinase (PERK) inhibitors for prevention and/or treatment of lung injury and/or inflammation” (THE TRUSTEES OF THE UNIVERSITY OF PENNSYLVANIA, priority 2016, dated 2021).

This data set relates to rat model of VILI. The protocol: To establish the feasibility of translating the in vitro findings to in vivo, a rat model of VILI was used. Animals were pretreated via oral gavage with either 30 mg/kg PI or its vehicle for 4 hours prior to the start of the experiment. Rats were ventilated with 20 ml/kg tidal volume via tracheostomy for 4 hours without positive end expiratory pressure (PEEP) or a recruitment maneuver to induce injury. The lung tissue of ventilated animals was compared to spontaneously breathing controls. […] To confirm these findings, immunofluorescence analysis of thin cut sections was performed using a Zeiss LSM 880 laser scanning confocal microscope (FIG. 19).
Groups of animals (Sprague-Drawly rats, 250 to 300 g weight purchased from Charles River Laboratories, N=150)) were pretreated with one time dose of 3, 10 and 30 mg/kg of PI (GSK2606414) or its vehicle (0.1% TWEEN 80 in 0.5% […]) via oral gavage 4 hours before the start of the experiment. Subsequently, animals were randomized in the following conditions: • 1. Non-ventilated controls pretreated with drug vehicle (C/VC). These animals were sacrificed 8 hours post gavage. • 2. Low tidal volume ventilation group pretreated with vehicle (LTV/VC). These animals were anesthetized 4 hours post gavage and ventilated via tracheostomy for 4 hours with 6 ml/kg tidal volume, 3-5 cmH2O PEEP and lungs were recruited with 30 cmH2O pressure of air hourly. Animals were sacrificed at the end of 4 hours ventilation. This group will served as a second control to assess lung injury parameters in an optimized ICU care situation. • 3. High tidal volume ventilation group pretreated with vehicle (HTV/VC). Animals were ventilated with 20 ml/kg tidal volume without PEEP or recruitment maneuver to induce lung injury and sacrificed at the end of mechanical ventilation period. • 4. Controls with PI treatment (C/PI). Animals were sacrificed after 8 hours of PI treatment. • 5. High tidal volume mechanical ventilation with PI treatment (HTV/PI). Animals were sacrificed at the end of mechanical ventilation period. At the end of the experiment, lung tissue, BAL and serum was collected from all animals. To determine the optimal dose of PI in VILI, the following parameters were measured: BAL total protein measurement (BioRad Protein Assay, BioRad, Hercules, Calif.); lung tissue histology with hematoxylin-eosin (H&E) staining for lung injury scoring; BAL total and differential cell count; Serum and BAL cytokine analysis for IL-18 (R&D Systems, Minneapolis, Minn., USA); lung tissue was collected for future RNA and protein expression studies; blood pressure and heart rate recording (Coda Monitor, Kent Scientific, Torrington, Conn.); and/or animal mortality prior to the end of the experiment.
Rats (N=32) received PERK inhibitor GSK 2606414 (PI) or vehicle control (0.1% Tween 80+0.5% hydroxypropyl-methylcellulose (VC)) via oral gavage 4 hours before the start of mechanical ventilation in 2.5 ml volume bolus. Subsequently, animals were randomized to receive mechanical ventilation, or they were let to breathe spontaneously (N=8/group). For the mechanical ventilation protocol, rats were kept under general anesthesia for the entire procedure. Their breathing, cardiac function and neurological responses were continuously monitored to minimize pain and distress. Induction and maintenance anesthesia was performed with inhaled 2-4% isoflurane. If additional anesthesia was necessary to keep the animal in surgical plane at the time of induction, it was given an intraperitoneal injection of a mixture of ketamine (75-100 mg/kg) and xylazine (5-10 mg/kg). To minimize injectable anesthesia and improve analgesia use, the subcutaneous tissue of the tracheostomy site was injected with 1% lidocaine.

Where [1] appears, read: CPI: spontaneously breathing rats, 30 mg/kg four hours prior to sacrifice.
Setting [2] is: VPI: rats ventilated 4 hours with 20 ml/kg tidal volume, 30 mg/kg four hours prior to ventilation.
[3] abbreviates: ventilated rats, 30 mg/kg PI oral.
Where [4] appears, read: ventilated rats, 30 mg/kg oral gavage.

Each structure is given as a SMILES string. Read-outs that look alike come from different tables or passages of the source.

Turning to `Cn1cc(-c2ccc3c(c2)CCN3C(=O)Cc2cccc(C(F)(F)F)c2)c2c(N)ncnc21` [PI, 1-[5-(4-Amino-7-methyl-7H-pyrrolo[2,3-d]pyrimidin-5-yl)indolin-1-yl]-2-(3-trifluoromethylphenyl)ethanone], under setting [1], the Macrophage cell count was 0.77 ± 0.17 ×10^3 cells/ml BAL, the Neutrophil cell count is reported as 0.003 ± 0.003 ×10^3 cells/ml BAL and the Total cell count is given as 1.44 ± 0.23 ×10^3 cells/ml BAL. For the same compound, the “FITC-labeled albumin permeability index” value (VPI vs V, 30 mg/kg oral gavage) is “decreased”. For the same compound, under setting [2], the Macrophage cell count is 1.28 ± 0.26 ×10^3 cells/ml BAL, the Neutrophil cell count is 0.03 ± 0.009 ×10^3 cells/ml BAL and the Total cell count is listed as 1.75 ± 0.14 ×10^3 cells/ml BAL. Moreover, the “dose sufficient to inhibit VILI” value (dose titration 3, 10 and 30 mg/kg, oral gavage 4 hours before ventilation) was 10 mg/kg. Moreover, the “alveolocapillary permeability in VILI (FITC-labeled albumin extravasation), effect of increasing dose” value (dose titration 3-30 mg/kg, experiment partially completed) is listed as “gradual effect on reducing alveolocapillary permeability”. Moreover, the “immunosuppression (BAL cell count)” value (spontaneously breathing animals, 30 mg/kg) is given as “did not result in immunosuppression”. For the same compound, under setting [3], the “Ventilation-induced BAL total protein content” value was “significantly reduced” and the lung injury score result was “significantly reduced”. Besides, under setting [4], the “IL-18 BAL levels” value is recorded as “reduced” and the “serum IL-18 levels” value is given as “did not affect”.
